Legend:
[1] = biological target: human GABAA α5β2γ1 receptor (Homo sapiens (Human), UniProt P31644+Q8N1C3); assay: Radioligand binding assay for γ1-containing GABAA subtypes, [3H]RO7239181 competition (α5β2γ1)
[2] = biological target: human GABAA α2β2γ1 receptor (Homo sapiens (Human), UniProt P47869+Q8N1C3); assay: Radioligand binding assay for γ1-containing GABAA subtypes, [3H]RO7239181 competition (α2β2γ1)
[3] = biological target: human GABAA α1β3γ2 receptor (Homo sapiens (Human), UniProt P14867+P18507); assay: Radioligand binding assay for γ2-containing GABAA subtypes, [3H]Flumazenil competition (α1β3γ2); conditions: for γ2/γ1 Selectivity Ratio: Ki α1β3γ2 (nM)/Ki α2β2γ1 (nM); for LogSel: Log[Ki α1β3γ2 (nM)/Ki α2β2γ1 (nM)]
[4] = biological target: α2β2γ1 GABAA receptor subtype (Homo sapiens (Human), UniProt P47869+Q8N1C3); assay: Two-electrode voltage clamp electrophysiology in Xenopus oocytes expressing GABAA receptors (modulation of GABA EC20 current); assay type: cell-based; conditions: for Efficacy (GABA)%: % modulation of GABA EC20 = 100*(Fold increase-1), α2β2γ1 oocytes, compound at approx. 30-fold Ki; for Fold increase h-GABA-A α2β2γ1 oocyte @ 30-fold Ki: Xenopus oocytes expressing α2β2γ1, compound at approx. 30-fold its Ki α2β2γ1, GABA EC20 current
Procedure, shortened: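 Each concentration was tested on ≥3 oocytes held at −80 mV at room temperature, recorded 3-5 days post-injection. A control and a test response to EC20 GABA (1.5 min each) were superimposed and their point-by-point ratio taken. Peak ratio reported as % modulation of GABA EC20 = 100×(fold increase−1).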

[5] = Ki h-GABAA α2β2γ1, [3H]RO7239181 competition binding, human GABAA α2β2γ1
[6] = Ki h-GABAA α2β2γ1, displacement of [3H]RO7239181, membranes of HEK293F cells expressing human receptors, means of two determinations

| SMILES | Ki [1] [nM] | Ki [2, 5] [nM] | Ki [2, 6] [nM] | Ki [3] [nM] | γ2/γ1 Selectivity Ratio [3] | LogSel [3] | Efficacy (GABA)% [4] [%] | Fold increase h-GABA-A α2β2γ1 oocyte @ 30-fold Ki [4] |
| --- | --- | --- | --- | --- | --- | --- | --- | --- |
| C[C@@H]1N=C(c2c(F)cccc2F)c2c(ccc(Cl)c2Cl)-n2nc(C3COC3)nc21 [Example 81, (4S)-7,8-dichloro-6-(2,6-difluorophenyl)-4-methyl-2-(oxetan-3-yl)-4H-[1,2,4]triazolo[1,5-a][1,4]benzodiazepine] | 1.63 | 6.4 | 6.45 | 563 | 87.4 | 1.94 | 53 | 1.53 |
| C[C@@H]1N=C(c2c(F)cccc2F)c2c(ccc(Cl)c2Cl)-n2nc(S(C)(=O)=O)nc21 [Example 82, (4S)-7,8-dichloro-6-(2,6-difluorophenyl)-4-methyl-2-methylsulfonyl-4H-[1,2,4]triazolo[1,5-a][1,4]benzodiazepine] | 3.55 | 19.8 | 19.8 | 2130 | 107.3 | 2.03 | 75 | 1.75 |
| Cc1nc2n(n1)-c1ccc(C(F)(F)F)c(Cl)c1C(c1ncccc1F)=N[C@H]2C [Example 83, (4S)-7-chloro-6-(3-fluoro-2-pyridyl)-2,4-dimethyl-8-(trifluoromethyl)-4H-[1,2,4]triazolo[1,5-a][1,4]benzodiazepine] | 5.54 | 70.8 | 70.8 | 5490 | 77.6 | 1.89 | 154 | 2.54 |
| Cc1nc2n(n1)-c1ccc(Cl)c(Cl)c1C(c1ncccc1F)=N[C@H]2C [Example 84, (4S)-7,8-dichloro-6-(3-fluoro-2-pyridyl)-2,4-dimethyl-4H-[1,2,4]triazolo[1,5-a][1,4]benzodiazepine] | 2.8 | 28.4 | 28.4 | 977 | 34.4 | 1.54 | 175 | 2.75 |
| CCOC1CN(C(=O)c2nc3n(n2)-c2ccc(Cl)c(Cl)c2C(c2ncccc2F)=N[C@H]3C)C1 [Example 86, (3-ethoxyazetidin-1-yl)-[(4S)-7,8-dichloro-6-(3-fluoro-2-pyridyl)-4-methyl-4H-[1,2,4]triazolo[1,5-a][1,4]benzodiazepin-2-yl]methanone] | 6.13 | 37 | 37 | 2050 | 55.4 | 1.74 | 97 | 1.97 |
| CC1CN(C(=O)c2nc3n(n2)-c2ccc(Cl)c(Cl)c2C(c2ncccc2F)=N[C@H]3C)C1 [Example 87, [(4S)-7,8-dichloro-6-(3-fluoro-2-pyridyl)-4-methyl-4H-[1,2,4]triazolo[1,5-a][1,4]benzodiazepin-2-yl]-(3-methylazetidin-1-yl)methanone] | 5.5 | 55.2 | 55.2 | 3290 | 59.7 | 1.78 | 84 | 1.84 |
| C[C@@H]1N=C(c2ncccc2F)c2c(ccc(Cl)c2Cl)-n2nc(C(=O)NC3CC3)nc21 [Example 88, (4S)-7,8-dichloro-N-cyclopropyl-6-(3-fluoro-2-pyridyl)-4-methyl-4H-[1,2,4]triazolo[1,5-a][1,4]benzodiazepine-2-carboxamide] | 10.1 | 90.6 | 90.6 | 2820 | 31.2 | 1.49 | 162 | 2.62 |
| CO[C@H]1CCN(C(=O)c2nc3n(n2)-c2ccc(Cl)c(Cl)c2C(c2ncccc2F)=N[C@H]3C)C1 [Example 89, [(4S)-7,8-dichloro-6-(3-fluoro-2-pyridyl)-4-methyl-4H-[1,2,4]triazolo[1,5-a][1,4]benzodiazepin-2-yl]-[(3S)-3-methoxypyrrolidin-1-yl]methanone] | 6.15 | 69.7 | 69.7 | 6350 | 91.2 | 1.96 | 113 | 2.13 |
| C[C@@H]1N=C(c2ncccc2F)c2c(ccc(Cl)c2Cl)-n2nc(C(=O)N3CC(OC(F)F)C3)nc21 [Example 90, [(4S)-7,8-dichloro-6-(3-fluoro-2-pyridyl)-4-methyl-4H-[1,2,4]triazolo[1,5-a][1,4]benzodiazepin-2-yl]-[3-(difluoromethoxy)azetidin-1-yl]methanone] | 6.09 | 21.8 | 21.8 | 4740 | 217.2 | 2.34 | 104 | 2.04 |
| COc1nc2n(n1)-c1ccc(Cl)c(Cl)c1C(c1c(F)cccc1F)=N[C@H]2C [Example 91, (4S)-7,8-dichloro-6-(2,6-difluorophenyl)-2-methoxy-4-methyl-4H-[1,2,4]triazolo[1,5-a][1,4]benzodiazepine] | 1.5 | 23.7 | 23.7 | 752 | 31.7 | 1.50 | 75 | 1.75 |
| C[C@@H]1N=C(c2c(F)cccc2F)c2c(ccc(Cl)c2Cl)-n2nc(OC3COC3)nc21 [Example 92, (4S)-7,8-dichloro-6-(2,6-difluorophenyl)-4-methyl-2-(oxetan-3-yloxy)-4H-[1,2,4]triazolo[1,5-a][1,4]benzodiazepine] | 4.45 | 44.9 | 44.9 | 3280 | 73.0 | 1.86 | 44 | 1.44 |
| C[C@@H]1N=C(c2c(F)cccc2F)c2c(ccc(Cl)c2Cl)-n2nc(C(=O)N3CC4(COC4)C3)nc21 [Example 93, [(4S)-7,8-dichloro-6-(2,6-difluorophenyl)-4-methyl-4H-[1,2,4]triazolo[1,5-a][1,4]benzodiazepin-2-yl]-(2-oxa-6-azaspiro[3.3]heptan-6-yl)methanone] | 2.25 | 3.3 | 3.3 | 1290 | 390.6 | 2.59 | 75 | 1.75 |
| C[C@@H]1N=C(c2c(F)cccc2F)c2c(ccc(Cl)c2Cl)-n2nc(C(=O)N3CC4(CCO4)C3)nc21 [Example 94, [(4S)-7,8-dichloro-6-(2,6-difluorophenyl)-4-methyl-4H-[1,2,4]triazolo[1,5-a][1,4]benzodiazepin-2-yl]-(1-oxa-6-azaspiro[3.3]heptan-6-yl)methanone] | 1.43 | 3.9 | 3.89 | 586 | 150.7 | 2.18 | 76 | 1.76 |

Source: US12365687B2 (Hoffmann-La Roche Inc., priority 2021, dated 2025)
